≈ marks a conversion by molar mass, not a printed value.
Key:
[1] = tested on: Escherichia coli; experiment: Bactericidal activity against Escherichia coli ATCC 35210 after 72 hrs by microdilution method; assay type: functional
[2] = tested on: Aspergillus versicolor; experiment: Antifungal activity against Aspergillus versicolor ATCC 11730 after 72 hrs by microdilution method; assay type: functional; conditions: ATCC 11730, 72 h
[3] = tested on: Pseudomonas aeruginosa; experiment: Bactericidal activity against Pseudomonas aeruginosa ATCC 27853 after 72 hrs by microdilution method; assay type: functional
[4] = tested on: Escherichia coli; experiment: Antibacterial activity against Escherichia coli ATCC 35210 after 24 hrs by microdilution method; assay type: functional; conditions: ATCC 35210, 24 h
[5] = tested on: Aspergillus niger; experiment: Antifungal activity against Aspergillus niger ATCC 6275 after 72 hrs by microdilution method; assay type: functional; conditions: ATCC 6275, 72 h
[6] = tested on: Enterobacter cloacae; experiment: Bactericidal activity against Enterobacter cloacae ATCC 35030 isolated from human after 72 hrs by microdilution method; assay type: functional
[7] = tested on: Staphylococcus aureus; experiment: Bactericidal activity against Staphylococcus aureus ATCC 6538 after 72 hrs by microdilution method; assay type: functional
[8] = tested on: Listeria monocytogenes; experiment: Bactericidal activity against Listeria monocytogenes NCTC 7973 after 72 hrs by microdilution method; assay type: functional
[9] = tested on: Penicillium ochrochloron; experiment: Antifungal activity against Penicillium ochrochloron ATCC 9112 after 72 hrs by microdilution method; assay type: functional; conditions: ATCC 9112, 72 h
[10] = tested on: Listeria monocytogenes; experiment: Antibacterial activity against Listeria monocytogenes NCTC 7973 after 24 hrs by microdilution method; assay type: functional; conditions: NCTC 7973, 24 h
[11] = tested on: Candida albicans; experiment: Antifungal activity against Candida albicans ATCC 10231 isolated from human after 72 hrs by microdilution method; assay type: functional; conditions: ATCC 10231, 72 h
[12] = tested on: Aspergillus ochraceus; experiment: Antifungal activity against Aspergillus ochraceus ATCC 12066 after 72 hrs by microdilution method; assay type: functional; conditions: ATCC 12066, 72 h
[13] = tested on: Aspergillus ochraceus; experiment: Fungicidal activity against Aspergillus ochraceus ATCC 12066 after 72 hrs by microdilution method; assay type: functional
[14] = tested on: Aspergillus fumigatus; experiment: Fungicidal activity against Aspergillus fumigatus isolated from human after 72 hrs by microdilution method; assay type: functional
[15] = tested on: Trichoderma viride; experiment: Antifungal activity against Trichoderma viride IAM 5061 after 72 hrs by microdilution method; assay type: functional; conditions: IAM 5061, 72 h
[16] = tested on: Aspergillus versicolor; experiment: Fungicidal activity against Aspergillus versicolor ATCC 11730 after 72 hrs by microdilution method; assay type: functional
[17] = tested on: Candida albicans; experiment: Fungicidal activity against Candida albicans ATCC 10231 isolated from human after 72 hrs by microdilution method; assay type: functional
[18] = tested on: Bacillus cereus; experiment: Antibacterial activity against Bacillus cereus clinical isolate after 24 hrs by microdilution method; assay type: functional
[19] = tested on: Aspergillus niger; experiment: Fungicidal activity against Aspergillus niger ATCC 6275 after 72 hrs by microdilution method; assay type: functional
[20] = tested on: Pseudomonas aeruginosa; experiment: Antibacterial activity against Pseudomonas aeruginosa ATCC 27853 after 24 hrs by microdilution method; assay type: functional; conditions: ATCC 27853, 24 h
[21] = tested on: Bacillus cereus; experiment: Bactericidal activity against Bacillus cereus clinical isolate after 72 hrs by microdilution method; assay type: functional
[22] = tested on: Salmonella typhimurium; experiment: Antibacterial activity against Salmonella typhimurium ATCC 13311 after 24 hrs by microdilution method; assay type: functional, Salmonella enterica subsp. enterica serovar Typhimurium; conditions: Salmonella enterica, ATCC 13311, 24 h
[23] = tested on: Micrococcus flavus; experiment: Bactericidal activity against Micrococcus flavus ATCC 10240 after 72 hrs by microdilution method; assay type: functional
[24] = tested on: Salmonella typhimurium; experiment: Bactericidal activity against Salmonella typhimurium ATCC 13311 after 72 hrs by microdilution method; assay type: functional, Salmonella enterica subsp. enterica serovar Typhimurium
[25] = tested on: Enterobacter cloacae; experiment: Antibacterial activity against Enterobacter cloacae ATCC 35030 isolated from human after 24 hrs by microdilution method; assay type: functional; conditions: ATCC 35030, 24 h
[26] = tested on: Micrococcus flavus; experiment: Antibacterial activity against Micrococcus flavus ATCC 10240 after 24 hrs by microdilution method; assay type: functional; conditions: ATCC 10240, 24 h
[27] = tested on: Staphylococcus aureus; experiment: Antibacterial activity against Staphylococcus aureus ATCC 6538 after 24 hrs by microdilution method; assay type: functional; conditions: ATCC 6538, 24 h
[28] = tested on: Trichoderma viride; experiment: Fungicidal activity against Trichoderma viride IAM 5061 after 72 hrs by microdilution method; assay type: functional
[29] = tested on: Talaromyces funiculosus; experiment: Fungicidal activity against Penicillium funiculosum ATCC 36839 after 72 hrs by microdilution method; assay type: functional
[30] = tested on: Talaromyces funiculosus; experiment: Antifungal activity against Penicillium funiculosum ATCC 36839 after 72 hrs by microdilution method; assay type: functional; conditions: ATCC 36839, 72 h
[31] = tested on: Aspergillus fumigatus; experiment: Antifungal activity against Aspergillus fumigatus isolated from human after 72 hrs by microdilution method; assay type: functional
[32] = tested on: Penicillium ochrochloron; experiment: Fungicidal activity against Penicillium ochrochloron ATCC 9112 after 72 hrs by microdilution method; assay type: functional

SMILES	MBC99.5 [1] [×10⁻² umol/ml]	MIC [2] [µM]	MBC99.5 [3] [×10⁻² umol/ml]	MIC [4] [µM]	MIC [5] [µM]	MBC99.5 [6] [×10⁻² umol/ml]	MBC99.5 [7] [×10⁻² umol/ml]	MBC99.5 [8] [×10⁻² umol/ml]	MIC [9] [µM]	MIC [10] [µM]	MIC [11] [µM]	MIC [12] [µM]	MFC99.5 [13] [×10⁻² umol/ml]	MFC99.5 [14] [×10⁻² umol/ml]	MIC [15] [µM]	MFC99.5 [16] [×10⁻² umol/ml]	MFC99.5 [17] [×10⁻² umol/ml]	MIC [18] [µM]	MFC99.5 [19] [×10⁻² umol/ml]	MIC [20] [µM]	also measured
CNc1nc(C)c(C2=NN(c3ccccc3)C(c3ccc(OC)cc3)C2)s1 (stereo unspecified)	21.1	132 (≈ 50 µg/mL)	26.4	185 (≈ 70 µg/mL)	132 (≈ 50 µg/mL)	18.5	15.8	10.6	264 (≈ 99.9 µg/mL)	53 (≈ 20.1 µg/mL)	264 (≈ 99.9 µg/mL)	132 (≈ 50 µg/mL)	13.2	37	132 (≈ 50 µg/mL)	21.1	37	158 (≈ 59.8 µg/mL)	26.4	158 (≈ 59.8 µg/mL)	MBC99.5 [21]: 26.4 ×10⁻² umol/ml; MIC [22]: 185 µM (≈ 70 µg/mL); MBC99.5 [23]: 15.8 ×10⁻² umol/ml; MBC99.5 [24]: 26.4 ×10⁻² umol/ml; MIC [25]: 132 µM (≈ 50 µg/mL); MIC [26]: 106 µM (≈ 40.1 µg/mL); MIC [27]: 106 µM (≈ 40.1 µg/mL); MFC99.5 [28]: 13.2 ×10⁻² umol/ml; MFC99.5 [29]: 37 ×10⁻² umol/ml; MIC [30]: 264 µM (≈ 99.9 µg/mL); MIC [31]: 264 µM (≈ 99.9 µg/mL); MFC99.5 [32]: 37 ×10⁻² umol/ml
CNc1nc(C)c(C2=NN(c3ccccc3)C(c3ccc([N+](=O)[O-])cc3)C2)s1 (stereo unspecified)	20.3	254 (≈ 99.9 µg/mL)	25.4	178 (≈ 70 µg/mL)	254 (≈ 99.9 µg/mL)	20.3	20.3	10.2	254 (≈ 99.9 µg/mL)	76 (≈ 29.9 µg/mL)	305 (≈ 120 µg/mL)	127 (≈ 50 µg/mL)	20.3	15.2	127 (≈ 50 µg/mL)	32.2	40.6	203 (≈ 79.9 µg/mL)	32.2	203 (≈ 79.9 µg/mL)	MBC99.5 [21]: 25.4 ×10⁻² umol/ml; MIC [22]: 152 µM (≈ 59.8 µg/mL); MBC99.5 [23]: 20.3 ×10⁻² umol/ml; MBC99.5 [24]: 25.4 ×10⁻² umol/ml; MIC [25]: 127 µM (≈ 50 µg/mL); MIC [26]: 127 µM (≈ 50 µg/mL); MIC [27]: 102 µM (≈ 40.1 µg/mL); MFC99.5 [28]: 15.2 ×10⁻² umol/ml; MFC99.5 [29]: 32.2 ×10⁻² umol/ml; MIC [30]: 254 µM (≈ 99.9 µg/mL); MIC [31]: 127 µM (≈ 50 µg/mL); MFC99.5 [32]: 32.2 ×10⁻² umol/ml
CNc1nc(C)c(C2=NN(c3ccccc3)C(c3ccc(Cl)cc3)C2)s1 (stereo unspecified)	21	131 (≈ 50.2 µg/mL)	31.4	183 (≈ 70.1 µg/mL)	131 (≈ 50.2 µg/mL)	18.3	21	10.5	131 (≈ 50.2 µg/mL)	52 (≈ 19.9 µg/mL)	157 (≈ 60.1 µg/mL)	131 (≈ 50.2 µg/mL)	15.7	26.2	131 (≈ 50.2 µg/mL)	21	26.2	157 (≈ 60.1 µg/mL)	26.2	152 (≈ 58.2 µg/mL)	MBC99.5 [21]: 31.4 ×10⁻² umol/ml; MIC [22]: 152 µM (≈ 58.2 µg/mL); MBC99.5 [23]: 21 ×10⁻² umol/ml; MBC99.5 [24]: 18.3 ×10⁻² umol/ml; MIC [25]: 131 µM (≈ 50.2 µg/mL); MIC [26]: 105 µM (≈ 40.2 µg/mL); MIC [27]: 105 µM (≈ 40.2 µg/mL); MFC99.5 [28]: 21 ×10⁻² umol/ml; MFC99.5 [29]: 36.7 ×10⁻² umol/ml; MIC [30]: 262 µM (≈ 100 µg/mL); MIC [31]: 131 µM (≈ 50.2 µg/mL); MFC99.5 [32]: 15.7 ×10⁻² umol/ml

Source: ChEMBL document CHEMBL3585344, “Thiazole-based aminopyrimidines and N-phenylpyrazolines as potent antimicrobial agents: synthesis and biological evaluation” (2014)
